Measurements taken from patent US20240239792A1, “MODULATORS OF BCL-2 OR BCL-2/BCL-XL AND USES THEREOF” (APPICINE THERAPEUTICS (HK) LIMITED, priority 2021, published 2024).

What was measured:
BCL-2 = biological target: T1, BCL-2 (Homo sapiens, UniProt P10415); experiment: HTRF BCL-2/BAK assay (Cisbio); type: binding; settings: recombinant human Tag1-BCL-2 2 nM, Tag2-BAK 10 nM
T1 construct: purchased Cisbio 63ADK000CB01PEG
Description: (§1) Then the pre-mixed anti-Tag1-Eu^3+ and anti-tag2-XL665 were added to the plate and further incubated at room temperature for another 2 hours. The signals ([…]) were read on Envision 2104 instrument. The IC50 for each compound was derived from fitting the signal of 665/615 nM to the increasing compound concentration.
(§2) Using the above assays, the following compounds were tested.

BCL-XL = biological target: T2, BCL-XL (Homo sapiens, UniProt Q07817); experiment: HTRF BCL-XL/BAK assay (Cisbio); type: binding; settings: recombinant human Tag1-BCL-XL 2 nM, Tag2-BAK 5 nM
T2 construct: purchased Cisbio 63ADK000CB04PEG
Description: as §1, §2

DOHH2 cells = experiment: CellTiter-Glo cell proliferation assay, DOHH2 cells; type: cell-based; settings: Homo sapiens, DOHH-2, 72 hours
Description: The CellTiter-Glo® Luminescent Cell Viability Assay (Promega, G7573) was used to study the cellular potency of disclosed compounds herein. The cells were harvested during the logarithmic growth period and counted with hemocytometer. The DOHH2 cells were seeded at 1.6*10^4 in 90 ul DMEM medium supplemented with 10% fetal bovine serum (FBS) (as RS4;11 cells were seeded at 4000 in 90 ul RPMI-1640 medium with 10% FBS) per well in 96-well plates and treated with 10 ul of a serial dilution of compounds disclosed herein (maximum concentration and dilution ratio determined by the results of pre-experiment may vary) for 72 hours in a 5% CO2 incubator at 37° C. Cell viability was assessed according to the manufacturer's recommendations. After the plates return to the room temperature, 100 ul of CellTiter-Glo® reagent was added to 100 ul of cell culture. The mixture was agitated on an orbital shaker for 2 minutes or placed it at room temperature for 10 minutes to allow cell lysis and stabilization of luminescent signals. Luminescent signals were recorded using Envision 2104 instrument. And GI50 values were then calculated.

T2 sequence (Q07817 whole entry): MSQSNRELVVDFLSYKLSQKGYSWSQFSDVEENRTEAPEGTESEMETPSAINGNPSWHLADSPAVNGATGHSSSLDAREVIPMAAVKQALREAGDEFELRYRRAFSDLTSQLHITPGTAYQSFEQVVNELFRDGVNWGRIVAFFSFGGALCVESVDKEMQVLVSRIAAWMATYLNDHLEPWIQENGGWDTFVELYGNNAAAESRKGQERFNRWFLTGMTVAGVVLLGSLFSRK
T1 sequence (P10415 whole entry): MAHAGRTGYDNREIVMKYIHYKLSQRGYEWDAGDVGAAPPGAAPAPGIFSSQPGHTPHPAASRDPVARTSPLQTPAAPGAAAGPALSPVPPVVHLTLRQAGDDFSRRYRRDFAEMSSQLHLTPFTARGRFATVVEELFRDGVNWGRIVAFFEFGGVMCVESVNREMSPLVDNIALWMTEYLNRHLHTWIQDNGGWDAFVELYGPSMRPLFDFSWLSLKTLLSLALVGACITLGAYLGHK

IC50 (BCL-2) | IC50 (BCL-XL) | Compound | GI50 (DOHH2 cells)
< 20 nM | < 20 nM | CN1CCC(CNc2ccc(S(=O)(=O)NC(=O)c3ccc(N4CCN([C@@H]5CCCCc6c(Br)cccc65)CC4)cc3Oc3cnc4[nH]ccc4c3)cc2[N+](=O)[O-])CC1 [Compound 69, (R)-2-((1H-pyrrolo[2,3-b]pyridin-5-yl)oxy)-4-(4-(1-bromo-6,7,8,9-tetrahydro-5H-benzo[7]annulen-5-yl)piperazin-1-yl)-N-((4-(((1-methylpiperidin-4-yl)methyl)amino)-3-nitrophenyl)sulfonyl)benzamide] | < 50 nM
< 20 nM | < 20 nM | CCN1CCC2(CC1)CC(CNc1ccc(S(=O)(=O)NC(=O)c3ccc(N4CCN([C@@H]5CCCCc6c(Cl)cccc65)CC4)cc3Oc3cnc4[nH]ccc4c3)cc1[N+](=O)[O-])C2 [Compound 131, (R)-2-((1H-pyrrolo[2,3-b]pyridin-5-yl)oxy)-4-(4-(1-chloro-6,7,8,9-tetrahydro-5H-benzo[7]annulen-5-yl)piperazin-1-yl)-N-((4-(((7-ethyl-7-azaspiro[3.5]nonan-2-yl)methyl)amino)-3-nitrophenyl)sulfonyl)benzamide] | < 50 nM
20 to 200 nM | > 2000 nM | CS(=O)(=O)Nc1cccc2c1CCCCC2N1CCN(c2ccc(C(=O)NS(=O)(=O)c3ccc(NCC4CCOCC4)c([N+](=O)[O-])c3)c(Oc3cnc4[nH]ccc4c3)c2)CC1 (stereo not drawn) [Compound 56, 2-((1H-pyrrolo[2,3-b]pyridin-5-yl)oxy)-4-(4-(1-(methylsulfonamido)-6,7,8,9-tetrahydro-5H-benzo[7]annulen-5-yl)piperazin-1-yl)-N-((3-nitro-4-(((tetrahydro-2H-pyran-4-yl)methyl)amino)phenyl)sulfonyl)benzamide] | > 5000 nM
< 20 nM | 200 to 2000 nM | Cc1ccc(S(=O)(=O)N2CCCC(N3CCN(c4ccc(C(=O)NS(=O)(=O)c5ccc(NCC6CCOCC6)c([N+](=O)[O-])c5)c(Oc5cnc6[nH]ccc6c5)c4)CC3)c3ccccc32)cc1 (stereo not drawn) [Compound 76, 2-((1H-pyrrolo[2,3-b]pyridin-5-yl)oxy)-N-((3-nitro-4-(((tetrahydro-2H-pyran-4-yl)methyl)amino)phenyl)sulfonyl)-4-(4-(1-tosyl-2,3,4,5-tetrahydro-1H-benzo[b]azepin-5-yl)piperazin-1-yl)benzamide] | 500 to 5000 nM
< 20 nM | 200 to 2000 nM | O=C(NS(=O)(=O)c1ccc(NCC2CCOCC2)c([N+](=O)[O-])c1)c1ccc(N2CCN(C3CCCCc4ccc(F)cc43)CC2)cc1Oc1cnc2[nH]ccc2c1 (stereo not drawn) [Compound 37, 2-((1H-pyrrolo[2,3-b]pyridin-5-yl)oxy)-4-(4-(3-fluoro-6,7,8,9-tetrahydro-5H-benzo[7]annulen-5-yl)piperazin-1-yl)-N-((3-nitro-4-(((tetrahydro-2H-pyran-4-yl)methyl)amino)phenyl)sulfonyl)benzamide] | 50 to 500 nM
< 20 nM | < 20 nM | CN1CCN(CCNc2ccc(S(=O)(=O)NC(=O)c3ccc(N4CCN(C5CCCCc6c(Cl)cccc65)CC4)cc3Oc3cnc4[nH]ccc4c3)cc2[N+](=O)[O-])CC1 (stereo not drawn) [Compound 32, 2-((1H-pyrrolo[2,3-b]pyridin-5-yl)oxy)-4-(4-(1-chloro-6,7,8,9-tetrahydro-5H-benzo[7]annulen-5-yl)piperazin-1-yl)-N-((4-((2-(4-methylpiperazin-1-yl)ethyl)amino)-3-nitrophenyl)sulfonyl)benzamide] | < 50 nM
< 20 nM | 200 to 2000 nM | CC(C)c1cccc2c1CCCCC2N1CCN(c2ccc(C(=O)NS(=O)(=O)c3ccc(NCC4CCOCC4)c([N+](=O)[O-])c3)c(Oc3cnc4[nH]ccc4c3)c2)CC1 (stereo not drawn) [Compound 51, 2-((1H-pyrrolo[2,3-b]pyridin-5-yl)oxy)-4-(4-(1-isopropyl-6,7,8,9-tetrahydro-5H-benzo[7]annulen-5-yl)piperazin-1-yl)-N-((3-nitro-4-(((tetrahydro-2H-pyran-4-yl)methyl)amino)phenyl)sulfonyl)benzamide] | 500 to 5000 nM
< 20 nM | 20 to 200 nM | CC(C)(C)OC(=O)NCCN1CCC2(CC1)CC(CNc1ccc(S(=O)(=O)NC(=O)c3ccc(N4CCN([C@@H]5CCCCc6c(Cl)cccc65)CC4)cc3Oc3cnc4[nH]ccc4c3)cc1[N+](=O)[O-])C2 [Compound 109, tert-butyl (R)-(2-(2-(((4-(N-(2-((1H-pyrrolo[2,3-b]pyridin-5-yl)oxy)-4-(4-(1-chloro-6,7,8,9-tetrahydro-5H-benzo[7]annulen-5-yl)piperazin-1-yl)benzoyl)sulfamoyl)-2-nitrophenyl)amino)methyl)-7-azaspiro[3.5]nonan-7-yl)ethyl)carbamate] | < 50 nM
< 20 nM | 20 to 200 nM | O=C(NS(=O)(=O)c1ccc(NCC2CCOCC2)c([N+](=O)[O-])c1)c1ccc(N2CCN(C3CCCCc4c3cccc4[N+](=O)[O-])CC2)cc1Oc1cnc2[nH]ccc2c1 (stereo not drawn) [Compound 33, 2-((1H-pyrrolo[2,3-b]pyridin-5-yl)oxy)-N-((3-nitro-4-(((tetrahydro-2H-pyran-4-yl)methyl)amino)phenyl)sulfonyl)-4-(4-(1-nitro-6,7,8,9-tetrahydro-5H-benzo[7]annulen-5-yl)piperazin-1-yl)benzamide] | < 50 nM
< 20 nM | < 20 nM | CN1CCC(CNc2ccc(S(=O)(=O)NC(=O)c3ccc(N4CCN(C5CCCCc6c(Cl)cccc65)CC4)cc3Oc3cnc4[nH]ccc4c3)cc2[N+](=O)[O-])CC1 (stereo not drawn) [Compound 29, 2-((1H-pyrrolo[2,3-b]pyridin-5-yl)oxy)-4-(4-(1-chloro-6,7,8,9-tetrahydro-5H-benzo[7]annulen-5-yl)piperazin-1-yl)-N-((4-(((1-methylpiperidin-4-yl)methyl)amino)-3-nitrophenyl)sulfonyl)benzamide] | < 50 nM
< 20 nM | 200 to 2000 nM | O=C(NS(=O)(=O)c1ccc(NC[C@H]2CO[C@H]3OCC[C@@H]23)c([N+](=O)[O-])c1)c1ccc(N2CCN([C@@H]3CCCCc4c(Br)cc(F)cc43)CC2)cc1Oc1cnc2[nH]ccc2c1 (relative stereo) [Compound 82, 2-((1H-pyrrolo[2,3-b]pyridin-5-yl)oxy)-4-(4-((R)-1-bromo-3-fluoro-6,7,8,9-tetrahydro-5H-benzo[7]annulen-5-yl)piperazin-1-yl)-N-((4-((((3S,3aS,6aR)-hexahydrofuro[2,3-b]furan-3-yl)methyl)amino)-3-nitrophenyl)sulfonyl)benzamide] | 500 to 5000 nM
< 20 nM | 20 to 200 nM | O=C(NS(=O)(=O)c1ccc(NCC2CC3(COC3)C2)c([N+](=O)[O-])c1)c1ccc(N2CCN([C@@H]3CCCCc4c3cccc4[N+](=O)[O-])CC2)cc1Oc1cnc2[nH]ccc2c1 [Compound 75, (R)-2-((1H-pyrrolo[2,3-b]pyridin-5-yl)oxy)-N-((4-(((2-oxaspiro[3.3]heptan-6-yl)methyl)amino)-3-nitrophenyl)sulfonyl)-4-(4-(1-nitro-6,7,8,9-tetrahydro-5H-benzo[7]annulen-5-yl)piperazin-1-yl)benzamide] | < 50 nM
> 2000 nM | > 2000 nM | CC(C)(C)OC(=O)N1CCC2(CC1)CC(CNc1ccc(S(=O)(=O)NC(=O)c3ccc(N4CCN([C@@H]5CCCCc6c(Cl)cccc65)CC4)cc3)cc1[N+](=O)[O-])C2 [Compound 116, tert-butyl (R)-2-(((4-(N-(4-(4-(1-chloro-6,7,8,9-tetrahydro-5H-benzo[7]annulen-5-yl)piperazin-1-yl)benzoyl)sulfamoyl)-2-nitrophenyl)amino)methyl)-7-azaspiro[3.5]nonane-7-carboxylate] | 
200 to 2000 nM | > 2000 nM | CC(=O)N1CCC2(CC1)CC(CNc1ccc(S(=O)(=O)NC(=O)c3ccc(N4CCN([C@@H]5CCCCc6c(Cl)cccc65)CC4)cc3)cc1[N+](=O)[O-])C2 [Compound 118, (R)-N-((4-(((7-acetyl-7-azaspiro[3.5]nonan-2-yl)methyl)amino)-3-nitrophenyl)sulfonyl)-4-(4-(1-chloro-6,7,8,9-tetrahydro-5H-benzo[7]annulen-5-yl)piperazin-1-yl)benzamide] | 
< 20 nM |  | CC(C)S(=O)(=O)N1CCC2(CC1)CC(CNc1ccc(S(=O)(=O)NC(=O)c3ccc(N4CCN([C@@H]5CCCCc6c(Cl)cccc65)CC4)cc3Oc3cnc4[nH]ccc4c3)cc1[N+](=O)[O-])C2 [Compound 128, (R)-2-((1H-pyrrolo[2,3-b]pyridin-5-yl)oxy)-4-(4-(1-chloro-6,7,8,9-tetrahydro-5H-benzo[7]annulen-5-yl)piperazin-1-yl)-N-((4-(((7-(isopropylsulfony1)-7-azaspiro[3.5]nonan-2-yl)methyl)amino)-3-nitrophenyl)sulfony1)benzamide] | < 50 nM
